From PubChem BioAssay (NCI)
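Interpolation was linear, between the two tested concentrations surrounding the appropriate level; five concentrations were tested over 48 hours in 96-well plates. TGI is the concentration that stops growth completely.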

Legend:
Assay in all cases: NCI tumour cell line growth inhibition, 48 h
[1] = tested on: KM12 colon
[2] = tested on: DU-145 prostate
[3] = tested on: MDA-N
[4] = tested on: SN12C renal
[5] = tested on: NCI/ADR-RES ovarian
[6] = tested on: SW-620 colon
[7] = tested on: SR leukemia
[8] = tested on: HCT-116 colon
[9] = tested on: SK-MEL-2 melanoma
[10] = tested on: U251 CNS
[11] = tested on: K-562 leukemia
[12] = tested on: NCI-H226 lung
[13] = tested on: TK-10 renal
[14] = tested on: NCI-H460 lung
[15] = tested on: HT29 colon
[16] = tested on: UO-31 renal
[17] = tested on: HCT-15 colon
[18] = tested on: OVCAR-8 ovarian
[19] = tested on: RXF 393 renal
[20] = tested on: BT-549 breast
[21] = tested on: SF-295 CNS
[22] = tested on: SF-539 CNS
[23] = tested on: CAKI-1 renal
[24] = tested on: A498 renal
[25] = tested on: NCI-H23 lung
[26] = tested on: MDA-MB-435
[27] = tested on: COLO 205 colon
[28] = tested on: MCF7 breast
[29] = tested on: OVCAR-4 ovarian
[30] = tested on: HL-60(TB) leukemia
[31] = tested on: MALME-3M melanoma
[32] = tested on: EKVX NSCLC
[33] = tested on: SK-MEL-5 melanoma
[34] = tested on: UACC-257 melanoma
[35] = tested on: MDA-MB-231 breast
[36] = tested on: ACHN renal
[37] = tested on: OVCAR-5 ovarian
[38] = tested on: HCC-2998 colon
[39] = tested on: HOP-62 NSCLC
[40] = tested on: IGROV1 ovarian
[41] = tested on: UACC-62 melanoma
[42] = tested on: NCI-H522 lung
[43] = tested on: SK-MEL-28 melanoma
[44] = tested on: OVCAR-3 ovarian
[45] = tested on: MOLT-4 leukemia
[46] = tested on: SNB-75 CNS
[47] = tested on: SF-268 CNS
[48] = tested on: 786-0 renal
[49] = tested on: PC-3 prostate
[50] = tested on: RPMI-8226 leukemia
[51] = tested on: SNB-19 CNS
[52] = tested on: HS 578T breast
[53] = tested on: M14 melanoma
[54] = tested on: HOP-92 NSCLC
[55] = tested on: LOX IMVI melanoma
[56] = tested on: SK-OV-3 ovarian
[57] = tested on: A549 NSCLC
[58] = tested on: CCRF-CEM leukemia

Structure (SMILES): O=c1[nH]c2[nH]c(-c3ccc(Br)cc3)cc2c2ccccc12
- TGI [1]: > 100 µM
- TGI [2]: > 100 µM
- TGI [3]: > 100 µM
- TGI [4]: > 100 µM
- TGI [5]: > 100 µM
- TGI [6]: > 100 µM
- TGI [7]: 26.9 µM
- TGI [8]: > 100 µM
- TGI [9]: > 100 µM
- TGI [10]: 92.1 µM
- TGI [11]: > 100 µM
- TGI [12]: > 100 µM
- TGI [13]: > 100 µM
- TGI [14]: > 100 µM
- TGI [15]: > 100 µM
- TGI [16]: > 100 µM
- TGI [17]: > 100 µM
- TGI [18]: > 100 µM
- TGI [19]: 47.1 µM
- TGI [20]: > 100 µM
- TGI [21]: > 100 µM
- TGI [22]: > 100 µM
- TGI [23]: > 100 µM
- TGI [24]: > 100 µM
- TGI [25]: > 100 µM
- TGI [26]: > 100 µM
- TGI [27]: > 100 µM
- TGI [28]: > 100 µM
- TGI [29]: > 100 µM
- TGI [30]: 28 µM
- TGI [31]: > 100 µM
- TGI [32]: > 100 µM
- TGI [33]: > 100 µM
- TGI [34]: > 100 µM
- TGI [35]: 44.6 µM
- TGI [36]: > 100 µM
- TGI [37]: > 100 µM
- TGI [38]: > 100 µM
- TGI [39]: 53.9 µM
- TGI [40]: > 100 µM
- TGI [41]: > 100 µM
- TGI [42]: > 100 µM
- TGI [43]: > 100 µM
- TGI [44]: > 100 µM
- TGI [45]: 26.9 µM
- TGI [46]: 37.1 µM
- TGI [47]: > 100 µM
- TGI [48]: > 100 µM
- TGI [49]: > 100 µM
- TGI [50]: > 100 µM
- TGI [51]: > 100 µM
- TGI [52]: 38.5 µM

Structure (SMILES): c1ccc2c3ccn4ccc5c6ccccc6[nH]c5c4c-3nc2c1
- TGI [1]: 2.3 µM
- TGI [2]: 2.73 µM
- TGI [3]: 2.69 µM
- TGI [4]: 2.68 µM
- TGI [5]: 4.27 µM
- TGI [6]: 0.34 µM
- TGI [7]: 0.625 µM
- TGI [8]: 1.69 µM
- TGI [9]: 3.13 µM
- TGI [10]: 0.0992 µM
- TGI [13]: 4.2 µM
- TGI [14]: 0.63 µM
- TGI [15]: 1.11 µM
- TGI [16]: 2.71 µM
- TGI [17]: 1.38 µM
- TGI [18]: 0.638 µM
- TGI [20]: 3.6 µM
- TGI [21]: 3 µM
- TGI [22]: 2.98 µM
- TGI [23]: 2.93 µM
- TGI [24]: 3.02 µM
- TGI [25]: 3.61 µM
- TGI [26]: 2.89 µM
- TGI [27]: 1.79 µM
- TGI [28]: 2.65 µM
- TGI [29]: 0.552 µM
- TGI [30]: 2.43 µM
- TGI [31]: 3.06 µM
- TGI [32]: 2.72 µM
- TGI [33]: 2.8 µM
- TGI [34]: 4.25 µM
- TGI [35]: 1.31 µM
- TGI [36]: 2.74 µM
- TGI [53]: 3.79 µM
- TGI [37]: 2.92 µM
- TGI [38]: 0.879 µM
- TGI [39]: 2.76 µM
- TGI [40]: 2.83 µM
- TGI [41]: 3.51 µM
- TGI [42]: 3.27 µM
- TGI [43]: 3.2 µM
- TGI [54]: 3.12 µM
- TGI [44]: 0.315 µM
- TGI [55]: 0.316 µM
- TGI [46]: 2.98 µM
- TGI [56]: 3.02 µM
- TGI [57]: 1.26 µM
- TGI [49]: 2.71 µM
- TGI [51]: 2.93 µM
- TGI [52]: 5.23 µM

Structure (SMILES): C=C1CCc2ccccc2C1=O
- TGI [1]: > 100 µM
- TGI [2]: > 100 µM
- TGI [3]: > 100 µM
- TGI [4]: > 100 µM
- TGI [5]: > 100 µM
- TGI [6]: > 100 µM
- TGI [7]: 78.9 µM
- TGI [8]: > 100 µM
- TGI [9]: > 100 µM
- TGI [10]: > 100 µM
- TGI [11]: > 100 µM
- TGI [12]: > 100 µM
- TGI [58]: > 100 µM
- TGI [13]: > 100 µM
- TGI [14]: > 100 µM
- TGI [15]: > 100 µM
- TGI [16]: > 100 µM
- TGI [17]: > 100 µM
- TGI [18]: > 100 µM
- TGI [19]: > 100 µM
- TGI [20]: > 100 µM
- TGI [21]: > 100 µM
- TGI [22]: > 100 µM
- TGI [23]: > 100 µM
- TGI [24]: > 100 µM
- TGI [25]: > 100 µM
- TGI [26]: > 100 µM
- TGI [27]: > 100 µM
- TGI [28]: > 100 µM
- TGI [29]: > 100 µM
- TGI [30]: > 100 µM
- TGI [31]: > 100 µM
- TGI [32]: > 100 µM
- TGI [33]: > 100 µM
- TGI [34]: > 100 µM
- TGI [35]: > 100 µM
- TGI [36]: > 100 µM
- TGI [53]: > 100 µM
- TGI [37]: > 100 µM
- TGI [38]: > 100 µM
- TGI [39]: > 100 µM
- TGI [40]: > 100 µM
- TGI [41]: > 100 µM
- TGI [42]: > 100 µM
- TGI [54]: > 100 µM
- TGI [44]: > 100 µM
- TGI [45]: > 100 µM
- TGI [46]: > 100 µM
- TGI [47]: > 100 µM
- TGI [56]: > 100 µM
- TGI [48]: > 100 µM
- TGI [57]: > 100 µM
- TGI [49]: > 100 µM
- TGI [50]: > 100 µM
- TGI [51]: > 100 µM
- TGI [52]: > 100 µM

Structure (SMILES): CCCCOC(=O)C(=O)C(CC(CC)C(=O)c1ccccc1)C(=O)C=C(C)C (stereo unspecified)
- TGI [1]: > 100 µM
- TGI [2]: > 100 µM
- TGI [3]: > 100 µM
- TGI [4]: > 100 µM
- TGI [5]: > 100 µM
- TGI [6]: > 100 µM
- TGI [8]: > 100 µM
- TGI [9]: > 100 µM
- TGI [10]: > 100 µM
- TGI [12]: > 100 µM
- TGI [58]: > 100 µM
- TGI [13]: > 100 µM
- TGI [14]: > 100 µM
- TGI [16]: > 100 µM
- TGI [17]: > 100 µM
- TGI [18]: > 100 µM
- TGI [19]: > 100 µM
- TGI [20]: > 100 µM
- TGI [21]: > 100 µM
- TGI [22]: > 100 µM
- TGI [23]: > 100 µM
- TGI [25]: > 100 µM
- TGI [26]: > 100 µM
- TGI [27]: > 100 µM
- TGI [28]: > 100 µM
- TGI [29]: > 100 µM
- TGI [30]: > 100 µM
- TGI [32]: > 100 µM
- TGI [33]: > 100 µM
- TGI [34]: > 100 µM
- TGI [35]: > 100 µM
- TGI [36]: > 100 µM
- TGI [53]: > 100 µM
- TGI [37]: > 100 µM
- TGI [38]: > 100 µM
- TGI [39]: > 100 µM
- TGI [40]: > 100 µM
- TGI [41]: > 100 µM
- TGI [42]: > 100 µM
- TGI [43]: > 100 µM
- TGI [54]: > 100 µM
- TGI [44]: > 100 µM
- TGI [45]: > 100 µM
- TGI [55]: > 100 µM
- TGI [46]: > 100 µM
- TGI [47]: > 100 µM
- TGI [56]: > 100 µM
- TGI [48]: > 100 µM
- TGI [57]: > 100 µM
- TGI [49]: > 100 µM
- TGI [51]: > 100 µM
- TGI [52]: > 100 µM

Structure (SMILES): COc1ccc(Nc2nc3cc(C(F)(F)F)ccc3nc2C(=O)O)cc1
- TGI [1]: 92.4 µM
- TGI [2]: > 100 µM
- TGI [3]: > 100 µM
- TGI [4]: > 100 µM
- TGI [5]: 61 µM
- TGI [6]: 77.6 µM
- TGI [7]: 34.1 µM
- TGI [8]: 33.5 µM
- TGI [9]: 28 µM
- TGI [10]: 30.4 µM
- TGI [11]: 44.4 µM
- TGI [12]: 54.1 µM
- TGI [13]: > 100 µM
- TGI [14]: 53.3 µM
- TGI [15]: > 100 µM
- TGI [16]: 26.5 µM
- TGI [17]: 39 µM
- TGI [18]: 46.7 µM
- TGI [19]: 26.8 µM
- TGI [20]: 29.2 µM
- TGI [21]: 35.7 µM
- TGI [23]: > 100 µM
- TGI [24]: 35 µM
- TGI [25]: 30 µM
- TGI [26]: 48.1 µM
- TGI [27]: 46.7 µM
- TGI [28]: 51.7 µM
- TGI [29]: > 100 µM
- TGI [30]: 83.6 µM
- TGI [31]: 41.4 µM
- TGI [32]: 67.5 µM
- TGI [33]: 58.5 µM
- TGI [34]: 50.7 µM
- TGI [35]: > 100 µM
- TGI [36]: > 100 µM
- TGI [37]: 60.6 µM
- TGI [38]: 31.9 µM
- TGI [39]: 30.4 µM
- TGI [40]: 90.2 µM
- TGI [41]: 27.2 µM
- TGI [42]: 30 µM
- TGI [43]: > 100 µM
- TGI [44]: 34.1 µM
- TGI [45]: 28.6 µM
- TGI [55]: 40.8 µM
- TGI [46]: 48.3 µM
- TGI [47]: 39.5 µM
- TGI [48]: 43.9 µM
- TGI [49]: 57 µM
- TGI [51]: 72.2 µM
- TGI [52]: 55.5 µM
